“And” between values parts separate entries of the source, which are not always exact repeats. Equal values may be shown once.
Columns and labels:
[1] = system: lymphocyte; assay: MTT cytotoxic assay; format: cell-based, mouse; conditions: mouse spleen cells, 48 hours, MTT
Protocol: Mice were sacrificed by cervical dislocation, and spleens were collected under sterile conditions then teased through a nylon mesh. Erythrocytes were lysed. Cells were washed and resuspended at 5×10^6/ml in RPMI-1640 media supplemented with 10% FBS.
For one 96 well plate assay, 90 μl of cells, 45 μl of sample and 45 μl of RPMI-1640 media with 10% FBS were added into each well with the final volume 180 μl. The negative control wells (containing 90 μl of RPMI-1640 media with 10% FBS and 90 pt of cells), blank control (180 μl of RPMI-1640 media with 10% FBS) were also performed. Incubate plate for 48 hours at 37° C., 5% CO2 in a humidified incubator. 18 μl of MTT solution (5 mg/ml) was added for 6-7 h.
90 μl of MTT lysis solution was added to each well followed by a further incubation at 37° C. for 6-7 h. And the absorbance was measured at 570 nm using a plate reader.

[2] = system: B lymphocyte; assay: LPS induced B-lymphocyte proliferation ([3H]thymidine); format: cell-based, mouse
Protocol: (§1) Mice were sacrificed by cervical dislocation, and spleens were collected under sterile conditions then teased through a nylon mesh. Erythrocytes were lysed. Cells were washed and resuspended at 5×10^6/ml in RPMI-1640 media containing 10% FBS. For one 96 well plate assay, 100 pt of cells, 50 μl of sample and 50 μl of ConA/LPS were added into each well with the final volume 200 μl. The control wells were set up with 50 μl of RPMI-1640 media instead of ConA/LPS.
(§2) Plates were incubated for 48 h (ConA) or 60 h (LPS), respectively, at 37° C., 5% CO2 in a humidified incubator. In the last 8 h of incubation, 25 μl (1.9×10^10 Bq) of [^3H]thymidine was added. After plates were incubated for 48 h, the plates (ConA) were stored at −20° C., then after another 12 h, the plates (LPS) were stored at −20° C.
(§3) At the end of incubation, pulsed cells were harvested on a glass filter using a cell harvester ([…]96®, TOMTEC) and allowed to dry. Incorporation of radioactive thymidine was determined by using liquid Scintillation and Luminescence Counters (MicroBeta Trilux®, PerkinElmer).

[3] = system: mice; assay: Acute toxicity (LD50) test in mice, oral; format: in vivo, mouse; conditions: single oral administration
Protocol: Mice were single administered with LLDT-8 by oral, and observed for clinical signs of toxicity immediately and the following 14 days. Necropsy was performed on all animals that died and on all survivors at the end of the 2-week study. Death was seen from the next day after treatment and reached a peak at the 2-3 day. […] There was no gender difference in survival.

[4] = system: murine T lymphocytes; assay: Induction of T lymphocyte apoptosis (PI staining, FACS); format: cell-based, mouse
Protocol: (1) The Tuf-tainer (non-adherent to cells) was pretreated with culture medium for 2 h;
(2) As that described in proliferation assay, Balb/c mice were sacrificed and their spleens were removed aseptically. A single cell suspension was prepared and resuspended in RPMI-1640 media at 5×10^6/ml.
(3) Cells were added to 5 μg/ml ConA or medium;
(4) The cells were cultured in 5% CO2 incubator at 37° C. for 24-96 h;
(5) Cells were collected and washed with PBS, centrifugated at 400 g for 10 min at 4° C.;
(6) The collected cells were shaken 10 s violently and 1 ml ice-cold 70% ethanol was added dropwise, capped and fixed overnight at […].;
(7) The cells were centrifuged at 3000 rpm for 5 min and the ethanol was removed; Incubated cells with 1 ml PI staining buffer at room temperature more than 30 min; FACs analysis was performed with 24 h.

[5] = system: mice; assay: Acute toxicity (LD50) test in mice, intraperitoneal injection; format: in vivo, mouse; conditions: single intraperitoneal injection
Protocol: Mice were single administered with LLDT-8 by intraperitoneal injection, and observed for clinical signs of toxicity immediately and the following 14 days. Necropsy was performed on all animals that died and on all survivors at the end of the 2-week study. Death was seen from the next day after treatment and reached a peak at the 2-4 day. All gross pathological changes should be recorded for each animal. There was no gender difference in survival.
LLDT-8 is much less toxic than its parent compound, […].

[6] = system: T lymphocyte; assay: ConA induced T-lymphocyte proliferation ([3H]thymidine); format: cell-based, mouse
Protocol: as §1, §2, §3

[7] = system: P-388 (murine lymphoma cell); assay: Tumor cell proliferation, P-388; format: cell-based; conditions: read-out: Inhibitory effect on tumor cell proliferation IC50
[8] = system: collagen-induced arthritis; assay: Collagen-induced arthritis in DBA/1 mice; format: in vivo, mouse
[9] = system: ConA-stimulated lymphocytes; assay: IL-2 production from ConA-stimulated lymphocytes (ELISA); format: cell-based, mouse; conditions: without drug 3724.4
Protocol: Mice were sacrificed by cervical dislocation, and spleens were collected under sterile conditions then teased through a nylon mesh. Erythrocytes were lysed. Cells were washed and resuspended at 5×10^6/ml in RPMI-1640 media with 10% FBS.
1 ml of spleen cells were treated with or without ConA (5 μg/ml) or Sac (1:10000) and in the presence or absence of drugs in a final volume of 2 ml.
After 24 h culture at 37° C., 5% CO2 in a humidified incubator, cell-free supernatant was collected and frozen at −20° C. for ELISA.
IL-2, IL-12p40, IL-10, and IFN-γ levels were determined by Enzyme Linked Immuno Sorbance Assay (ELISA). TMB was taken as the enzyme substrate. The absorbance was measured at 450/570 nm by BioRad microplate reader. The amount of cytokines in sample supernatants were calculated based on standard curve using standard murine cytokines (rIL-2, rIL-12, rIL-10, and rIFN-γ).

[10] = system: WI-38 (human lung fibroblasts); assay: Cell proliferation, WI-38; format: cell-based; conditions: read-out: Inhibitory effect on tumor cell proliferation IC50

With `CC(C)[C@]12O[C@H]1[C@@H]1O[C@]13[C@]1(O[C@H]1C[C@@]1(O)C4=C(CC[C@]31C)C(=O)OC4)[C@@H]2O` [LLDT-8, (5R)-5-hydroxytriptolide] the “IC50 (concentration required to reduce the viability of cells by 50%)” value [1] was 0.0782 µg/mL, the IC50 ([1]; read-out: IC50 (concentration required to reduce the viability of cells by 50%)) was 0.208 µM and 0.2 µM and the “ED50 for inhibiting B lymphocyte proliferation induced by LPS” value ([2]; 60 h) was 0.0598 µg/mL. The EC50 ([2]; 60 h, read-out: ED50 for inhibiting B lymphocyte proliferation induced by LPS) was 0.159 µM, the “more potent inhibitory activity than CsA (B lymphocyte proliferation)” value ([2]; compared with CsA) was “about 4.3 fold” and the “LD50 95% confidence limits” value ([3]; mice) was 5.4 to 8.4 mg/kg. For the same molecule, the LD50 ([3]; mice, 14 days, Bliss' method) was 6.8 mg/kg, the “gross pathology (hemorrhage)” value [3] was “Obvious hemorrhage was seen at pylorus, duodenum, jejunum and ileum” and the “pathological changes in tissues by gross necropsy in survivors at day 15” value [3] was “No significant pathological changes”. The “CD4+ and CD8+ T lymphocytes percentage” value [4] was “reduced CD4^+ and CD8^+ T lymphocytes percentage”, the “apoptosis of murine T lymphocytes” value ([4]; at concentration below or near the IC50 for lymphocyte cytotoxicity) was “induced the apoptosis of murine T lymphocytes” and the “LD50 95% confidence limits” value ([5]; mice) was 7.7 to 11.3 mg/kg. The LD50 ([5]; mice, 14 days, Bliss' method) was 9.3 mg/kg, the “pathological changes in tissues by gross necropsy in survivors at day 15” value [5] was “No significant pathological changes” and the “ED50 for inhibiting T lymphocyte proliferation induced by ConA” value ([6]; 48 h) was 0.05812 µg/mL. The EC50 ([6]; 48 h, read-out: ED50 for inhibiting T lymphocyte proliferation induced by ConA) was 0.155 µM, the “inhibitory activity weaker than CsA (T lymphocyte proliferation)” value ([6]; compared with CsA) was “about 5.4 fold” and the IC50 [7] was 0.08 µM. For the same molecule, the “suppressive effect on CIA at lower doses” value ([8]; 0.2 and 0.04 mg/Kg/d, dose-dependent) was “Suppressive effect was also observed”, the “Anti-collagen specific antibody levels” value ([8]; compared with untreated CIA mice) was “reduced dose-dependently” and the “severity and incidence of CIA” value ([8]; i.p. 1 mg/Kg/d, compared with untreated CIA mice) was “effectively reduced severity and incidence of CIA”. For the same molecule, the “IL-2 production by lymphocytes stimulated with ConA, Mean Value” (“IL-2 production” below) ([9]; 0.3 nM) was 3857.2 pg/mL, the “IL-2 production” value ([9]; 3 nM) was 3494.2 pg/mL and the “IL-2 production” value ([9]; 30 nM) was 2872.7 pg/mL. It also gave an IC50 [10] of 0.48 µM.
